{"source": "patent US20210077382A1", "about": "“COMPOSITIONS, DEVICES, AND METHODS FOR THE TREATMENT OF OPIOID-RECEPTOR-MEDIATED CONDITIONS” (Opiant Phamaceuticals, Inc., priority 2016, published 2021)", "key": {"[1]": {"conditions": "same conditions as naltrexone; cited from earlier work"}, "[2]": {"conditions": "reported to be as low as; Gonzalez and Brogden 1988; cited from earlier work"}, "[3]": {"test": "Clinical pharmacokinetic crossover study of IN, IM and oral naltrexone; plasma naltrexone and 6β-naltrexol by LC-MS/MS", "conditions": "4 mg IN; 5 minutes postdose", "text": "Study Goals. […] Secondary endpoints included adverse events (AEs), vital signs (heart rate, sitting blood pressure, and respiration rate), electrocardiogram (ECG), clinical laboratory changes and nasal irritation using the nasal irritation scale.\nStudy design. […] This was an in-patient open-label, crossover study involving approximately 14 healthy volunteers. […] Subjects stayed in the in-patient facility for 13 days to complete the entire study. Subjects were called 3 to 5 days after discharge to inquire concerning AEs and concomitant medications since discharge. Informed consent was obtained from all subjects, and all were screened for eligibility to participate in the study, including medical history, physical examination, clinical chemistry, coagulation markers, hematology, infectious disease serology, urinalysis, urine drug and alcohol toxicology screen, vital signs and ECG.\nOn days of study drug administration, a 12-lead ECG was performed approximately 1 hour prior to dosing and at approximately 1 and 4 hours post-dose. Vital signs were measured pre-dose and about 1 and 4 hours post-dose.\nStudy Drugs and Dosing. […] The IN (40 mg/mL) formulations were made by the staff pharmacist at Vince & Associates; the vehicle for the IN formulations was sterile water for injection. The IM formulation (2 mg/mL) was made by the staff pharmacist at Vince & Associates; the vehicle was sterile saline for injection.\nSubjects stayed in the in-patient facility for 13 days to complete the entire study and were discharged 2 days after the fourth dose.\nPK Assessments. […] Plasma was separated from whole blood and stored frozen at […] until assayed.\nAnalysis. […] Dose-adjusted values for AUCs and Cmax were calculated. The relative extent of IN and PO absorption (IN and PO versus IM) will be estimated from the dose-corrected AUCs."}, "[4]": {"test": "Safety assessments (adverse events, vital signs, ECG, nasal irritation) in the clinical study", "type": "in vivo, human", "protocol": "On dosing days, the order of assessments was ECG, vital signs, then PK blood collection when scheduled at the same nominal times. The target time of the PK blood collection was considered the most critical and if the collection was more than ±1 minute from the scheduled time for the first 60 minutes of collections or more than ±5 minutes for the scheduled time points thereafter, this was considered a protocol deviation. ECG and vital signs were collected within the 10-minute period before the nominal time of blood collections. At screening, admission, and discharge, ECG, and vital signs were checked once per day. […] Clinical laboratory measurements were repeated after the last PK blood draw prior to clinic discharge. AEs were assessed by spontaneous reports by subjects, by examination of the nasal mucosa, by measuring vital signs, ECG, and clinical laboratory parameters.\nSafety Assessments. […] ECG and vital signs were performed within the 10-minute period before the nominal time for post-dose blood collections. Adverse events (AEs) were recorded from the start of study drug administration until clinic discharge."}, "[5]": {"conditions": "intranasal formulation with […] Intravail; cited from earlier work"}}, "data": [{"smiles": "C=C1CC[C@@]2(O)[C@H]3Cc4ccc(O)c5c4[C@@]2(CCN3CC2CC2)[C@H]1O5", "note": "[nalmefene, 17-cyclopropylmethyl-4,5α-epoxy-6-methylenemorphinan-3,14-diol]", "values": [{"measurement": "Change of AUC when an alkylsaccharide is added to the intranasal formulation", "setting": "[1]", "value": "do not have increased AUC"}]}, {"smiles": "O=C1CC[C@@]2(O)[C@H]3Cc4ccc(O)c5c4[C@@]2(CCN3CC2CC2)[C@H]1O5", "note": "[naltrexone, 17-(cyclopropylmethyl)-4,5a-epoxy-3,14-dihydroxymorphinan-6-one]", "values": [{"measurement": "Oral bioavailability", "setting": "[2]", "value": 5, "unit": "%"}, {"measurement": "Difference of mean naltrexone concentrations with and without Intravail", "setting": "[3]", "value": 8, "unit": "fold"}, {"measurement": "Subjects with dizziness (most frequent AE regardless of severity or attribution)", "setting": "[4]; 5 subjects of 14", "value": 36, "unit": "%"}, {"measurement": "Subjects with AEs of the Nervous System Disorders SOC (most frequent AEs)", "setting": "[4]; 7 subjects of 14", "value": 50, "unit": "%"}, {"measurement": "Severe AEs", "setting": "[4]; all dosing periods", "value": "No severe AEs were observed"}, {"measurement": "Moderate AEs", "setting": "[4]; dizziness after the first dose (4 mg IN), considered related to the study agent", "value": "one"}, {"measurement": "Subjects discontinued from the study due to AEs", "setting": "[4]; hypertension, syncope, out-of-range pre-dose vital signs", "value": "Three"}, {"measurement": "Treatment-related unexpected AE", "setting": "[4]; mild syncope after the Day 1 dose (4 mg IN)", "value": "one"}, {"measurement": "Subjects who experienced at least one AE", "setting": "[4]; safety population, 10 of 14 subjects, any dosing period, any relationship to drug", "value": 71, "unit": "%"}, {"measurement": "Subjects who experienced unexpected AEs", "setting": "[4]; two UAEs considered unrelated to the study agent", "value": "Three"}]}, {"smiles": "CNS(=O)(=O)Cc1ccc2[nH]cc(CCN(C)C)c2c1", "note": "[sumatriptan]", "values": [{"measurement": "Increase of maximum plasma concentration in comparison to Imitrex nasal spray", "setting": "[5]", "value": "almost four-fold"}, {"measurement": "Increase of total exposure (AUC)", "setting": "[5]", "value": 32, "unit": "%"}, {"measurement": "Tmax", "setting": "[5]", "value": "8 to 10", "unit": "min"}]}]}
